The experiment has as its target T1, Human M4 (Homo sapiens, UniProt P08173).
T1 construct: expressed in transfected cells; host or cells: CHO-K1 (ATCC), stably co-expressing chimeric G protein Gqi5
T1 sequence (P08173 1-479): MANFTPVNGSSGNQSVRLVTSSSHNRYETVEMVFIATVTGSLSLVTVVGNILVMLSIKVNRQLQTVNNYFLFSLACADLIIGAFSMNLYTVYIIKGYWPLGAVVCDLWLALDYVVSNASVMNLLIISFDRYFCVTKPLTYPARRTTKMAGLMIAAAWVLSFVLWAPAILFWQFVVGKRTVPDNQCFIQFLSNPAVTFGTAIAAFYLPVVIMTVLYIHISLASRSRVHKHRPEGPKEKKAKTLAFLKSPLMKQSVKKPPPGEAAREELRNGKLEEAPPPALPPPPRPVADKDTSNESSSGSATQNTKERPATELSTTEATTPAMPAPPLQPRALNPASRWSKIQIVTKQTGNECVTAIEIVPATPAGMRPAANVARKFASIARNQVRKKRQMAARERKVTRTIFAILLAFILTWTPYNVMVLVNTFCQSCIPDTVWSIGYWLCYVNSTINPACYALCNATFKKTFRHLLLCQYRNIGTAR
Description: mAChR M4 cell-based functional assay (calcium flux, antagonist mode). The settings on record: for remaining activity at 30 µM: % ACh maximum at 30 μM, read-out: Emin; for IC50: M4/Gqi5/CHO-K1 cells, concentration-dependent decrease of the EC80 acetylcholine response. How it is done:
Human or rat M4 cDNA, along with the chimeric G protein Gqi5, were transfected into Chinese hamster ovary (CHO-K1) cells purchased from the American Type Culture Collection using Lipofectamine2000. M4/Gqi5/CHO cells were grown in Ham's F-12 medium containing 10% heat-inactivated fetal bovine serum (FBS), 20 mM HEPES, 500 μg/mL G418 sulfate, and 200 μg/mL Hygromycin B.
For high throughput measurement of agonist-evoked increases in intracellular calcium, CHO-K1 cells stably expressing muscarinic receptors were plated in growth medium lacking G418 and hygromycin at 15,000 cells/20 μL/well in Greiner 384-well black-walled, tissue culture (TC)-treated, clear-bottom plates (VWR). Cells were incubated overnight at 37° C. and 5% CO2. The next day, cells were washed using an ELX 405 (BioTek) with assay buffer; the final volume was then aspirated to 20 μL, Next, 20 μL of a 2.3 μM stock of Fluo-4/acetoxymethyl ester (Invitrogen, Carlsbad, Calif.), prepared as a 2.3 μM stock in DMSO, mixed in a 1:1 ratio with 10% (w/v) Pluronic F-127 and diluted in assay buffer, was added to the wells and the cell plates were incubated for 50 min at 37° C. and 5% CO2. Dye was removed by washing with the ELX 405 and the final volume was aspirated to […]. Compound master plates were formatted in a 10 point concentration-response curve (CRC) format (1:3 dilutions) in 100% DMSO with a starting concentration of 10 or 1 mM using a BRAVO liquid handler (Agilent). Test compound CRCs were then transferred to daughter plates (240 nL) using the Echo acoustic plate reformatter (Labcyte, Sunnyvale, Calif.) and then diluted into assay buffer (40 μL) to a 2× stock using a Thermo Fisher Combi (Thermo Fisher Scientific, Waltham, Mass.).
Calcium flux was measured using the Functional Drug Screening System (FDSS) 6000 or 7000 (Hamamatsu Corporation, Tokyo, Japan) as an increase in the fluorescent static ratio. Compounds were applied to cells (20 μL, 2×) using the automated system of the FDSS at 2 seconds into the protocol and the data were collected at 1 Hz. At 143 s, 10 μL of an EC20 concentration of the muscarinic receptor agonist acetylcholine was added (5×), followed by the addition of 12 μL of an EC80 concentration of acetylcholine at the 268 s time point (5×). Agonist activity was analyzed as a concentration-dependent increase in calcium mobilization upon compound addition. Positive allosteric modulator activity was analyzed as a concentration-dependent increase in the EC20 acetylcholine response. Antagonist activity was analyzed as a concentration-dependent decrease in the EC80 acetylcholine response; for the purposes of the tables herein, an […] (inhibitory concentration 50) was calculated as a concentration-dependent decrease of the response elicited by an EC80 concentration of acetylcholine. Concentration-response curves were generated using a four-parameter logistical equation in XLFit curve fitting software (IDBS, Bridgewater, N.J.) for Excel (Microsoft, Redmond, Wash.) or Prism (GraphPad Software, Inc., San Diego, Calif.) or the Dotmatics software platform (Dotmatics, Bishop's Stortford, UK).
Compounds were synthesized as described above. Activity (IC50 and Emin) was determined in the mAChR M4 cell-based functional assay as described above and the data are shown in Table 4.
On the technique in general: Calcium flux is commonly read through the fluorescence of an indicator in the cells.

As to `Cc1nn(C)cc1-c1ccc(OC2CC3(CCN(CC4CCOCC4)CC3)C2)nn1` [Compound 27, 2-[6-(1,3-dimethylpyrazol-4-yl)pyridazin-3-yl]oxy-7-(tetrahydropyran-4-ylmethyl)-7-azaspiro[3.5]nonane], the remaining activity at 30 µM turned out to be 11.6% and the IC50 – broadly, the concentration at which inhibition is half-maximal – was 4430 nM.
For `Cc1nn(C)cc1-c1ccc(NC2CC3(CCN(CC4CCSCC4)CC3)C2)nn1` [Compound 6], the remaining activity at 30 µM is 4.58% and the IC50 stood at 330 nM.
Take `Cc1nn(C)cc1-c1ccc(OC2CC3(CCN(CCC(C)(C)C)CC3)C2)nn1` [Compound 13, 7-(3,3-Dimethylbutyl)-2-[6-(1,3-dimethylpyrazol-4-yl)pyridazin-3-yl]oxy-7-azaspiro[3.5]nonane]: the remaining activity at 30 µM was found to be 2.85% and the IC50 came to 200 nM.
Consider `Fc1ccc(Cl)c(-c2ccc(NCC3CC4(CCN(CC5CCCCC5)CC4)C3)nn2)c1` [Compound 42, 6-(2-chloro-5-fluoro-phenyl)-N-[[7-(cyclohexylmethyl)-7-azaspiro[3.5]nonan-2-yl]methyl]pyridazin-3-amine], for which the remaining activity at 30 µM is 6.27% and the IC50 worked out at 3140 nM.
As for `Fc1ccc(Cl)c(-c2ccc(OC3CC4(CCN(CC5CCCCC5)CC4)C3)nn2)c1` [Compound 18, 2-[6-(2-chloro-5-fluoro-phenyl)pyridazin-3-yl]oxy-7-(cyclohexylmethyl)-7-azaspiro[3.5]nonane], the remaining activity at 30 µM is 2.94% and the half-maximal inhibitory concentration (IC50) came out at 760 nM.
`Cc1nn(C)cc1-c1ccc(NCC2CC3(CCN(CC4CCOCC4)CC3)C2)nn1` [Compound 52, 6-(1,3-dimethylpyrazol-4-yl)-N-[[7-(tetrahydropyran-4-ylmethyl)-7-azaspiro[3.5]nonan-2-yl]methyl]pyridazin-3-amine]: the remaining activity at 30 µM is 30.8% and the IC50 is over 10000 nM.
For `Fc1ccc(Cl)c(-c2ccc(NCC3CC4(CCN(CC5CCCOC5)CC4)C3)nn2)c1` (stereo not drawn) [Compound 43, 6-(2-chloro-5-fluoro-phenyl)-N-[[7-(tetrahydropyran-3-ylmethyl)-7-azaspiro[3.5]nonan-2-yl]methyl]pyridazin-3-amine] the same measures were 5.29% and 2280 nM.
As for `Fc1ccc(Cl)c(-c2ccc(OCC3CC4(CCN(CC5CCOCC5)CC4)C3)nn2)c1` [Compound 64, 2-[[6-(2-chloro-5-fluoro-phenyl)pyridazin-3-yl]oxymethyl]-7-(tetrahydropyran-4-ylmethyl)-7-azaspiro[3.5]nonane], the remaining activity at 30 µM turned out to be 6.61% and the IC50 stood at 1310 nM.
For `Fc1ccc(Cl)c(-c2ccc(OCC3CC4(CCN(Cc5ccccn5)CC4)C3)nn2)c1` [Compound 66, 2-[[6-(2-chloro-5-fluoro-phenyl)pyridazin-3-yl]oxymethyl]-7-(2-pyridylmethyl)-7-azaspiro[3.5]nonane] the same measures were 8.3% and 2740 nM.
On to `Cc1nn(C)cc1-c1ccc(NC2CC3(CCN(CC4CCOCC4)CC3)C2)nn1` [Compound 5, N-[6-(1,3-dimethylpyrazol-4-yl)pyridazin-3-yl]-7-(tetrahydropyran-4-ylmethyl)-7-azaspiro[3.5]nonan-2-amine], for which the remaining activity at 30 µM is 15.9% and the IC50 is over 10000 nM.
Consider `Cc1cnn(C)c1-c1ccc(OC2CC3(CCN(CC4CCSCC4)CC3)C2)nn1` [Compound 36, 2-[6-(2,4-dimethylpyrazol-3-yl)pyridazin-3-yl]oxy-7-(tetrahydrothiopyran-4-ylmethyl)-7-azaspiro[3.5]nonane], for which the remaining activity at 30 µM stood at 4.76% and the IC50 came to 1210 nM.
In the same order, the values of `Fc1ccc(Cl)c(-c2ccc(OCC3CC4(CCN(Cc5ccccc5)CC4)C3)nn2)c1` [Compound 65, 7-benzyl-2-[[6-(2-chIoro-5-fluoro-phenyl)pyridazin-3-yl]oxymethyl]-7-azaspiro[3.5]nonane] are 6.28% and 2660 nM.
With `Fc1ccc(Cl)c(-c2ccc(OC3CC4(CCN(CC5CC6C=CC5C6)CC4)C3)nn2)c1` (stereo not drawn) [Compound 16, 7-(5-bicyclo[2.2.1]hept-2-enylmethyl)-2-[6-(2-chloro-5-fluoro-phenyl)pyridazin-3-yl]oxy-7-azaspiro[3.5]nonane], the remaining activity at 30 µM turned out to be 3.07% and the half-inhibitory concentration (IC50) came to 180 nM.
In the same order, the values of `Cc1nn(C)cc1-c1ccc(OC2CC3(CCN(CC4CCSCC4)CC3)C2)nn1` [Compound 29, 2-[6-(1,3-dimethylpyrazol-4-yl)pyridazin-3-yl]oxy-7-(tetrahydrothiopyran-4-ylmethyl)-7-azaspiro[3.5]nonane] are 5.29% and 1170 nM.
In the case of `Fc1ccc(Cl)c(-c2ccc(NCC3CC4(CCN(Cc5ccccn5)CC4)C3)nn2)c1` [Compound 47, 6-(2-chloro-5-fluoro-phenyl)-N-[[7-(2-pyridylmethyl)-7-azaspiro[3.5]nonan-2-yl]methyl]pyridazin-3-amine], the remaining activity at 30 µM is 5.52% and the IC50 came to 1910 nM.
For `Fc1ccc(Cl)c(-c2ccc(NCC3CC4(CCN(Cc5ccc6c(c5)OCO6)CC4)C3)nn2)c1` [Compound 49, N-[[7-(1,3-benzodioxol-5-ylmethyl)-7-azaspiro[3.5]nonan-2-yl]methyl]-6-(2-chloro-5-fluoro-phenyl)pyridazin-3-amine], the remaining activity at 30 µM amounted to 4.6% and the IC50 was 2020 nM.
For the compound `Cc1cnn(C)c1-c1ccc(OC2CC3(CCN(CC4CCCCC4)CC3)C2)nn1` [Compound 34, 7-(cyclohexylmethyl)-2-[6-(2,4-dimethylpyrazol-3-yl)pyridazin-3-yl]oxy-7-azaspiro[3.5]nonane], the remaining activity at 30 µM amounted to 4.38% and the IC50 was determined as 850 nM.
Take `Cc1nn(C)cc1-c1ccc(NC2CC3(CCN(CC(C)C(C)(C)C)CC3)C2)nn1` (stereo not drawn) [Compound 4, N-[6-(1,3-dimethylpyrazol-4-yl)pyridazin-3-yl]-7-(2,3,3-trjmethylbutyl)-7-azaspiro[3.5]nonan-2-amine]: the remaining activity at 30 µM worked out at 4.05% and the IC50 is 1020 nM.
Take `Cc1cnn(C)c1-c1ccc(NC2CC3(CCN(CCC(C)(C)C)CC3)C2)nn1` [Compound 2, 7-(3,3-Dimethylbutyl)-N-[6-(2,4-dimethylpyrazol-3-yl)pyridazin-3-yl]-7-azaspiro[3.5]nonan-2-amine]: the remaining activity at 30 µM was 3.29% and the IC50 worked out at 89 nM.
In the same order, the values of `Cc1nn(C)cc1-c1ccc(NCC2CC3(CCN(CC4CCCCC4)CC3)C2)nn1` [Compound 50, N-[[7-(cyclohexylmethyl)-7-azaspiro[3.5]nonan-2-yl]methyl]-6-(1,3-dimethylpyrazol-4-yl)pyridazin-3-amine] are 6.19% and 1160 nM.
Consider `Cc1nn(C)cc1-c1ccc(NCC2CC3(CCN(CCC(C)(C)C)CC3)C2)nn1` [Compound 39, N-[[7-(3,3-Dimethylbutyl)-7-azaspiro[3.5]nonan-2-yl]methyl]-6-(1,3-dimethylpyrazol-4-yl)pyridazin-3-amine], for which the remaining activity at 30 µM was 4.55% and the IC50 amounted to 220 nM.

The values above are taken from US11149022B2, “Antagonists of the muscarinic acetylcholine receptor M4” (Vanderbilt University, priority 2017, dated 2021).
